Here are results for four compounds from patent US12653191B2, “Active compound combinations” (Bayer Aktiengesellschaft, priority 2020, dated 2026).

What all share (format): cell-based
One test concerns Alternaria alternata. Put plainly: in vitro-Test with fungal microorganisms, Method B (tables A13-A22). The essentials:
(§1)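 Steps: solvent evaporation leaves the compound coating the wells; fungus-inoculated liquid growth medium goes on top; absorbance at 600 nm is measured; incubation runs 3 to 7 days at 20° C. with 85% relative humidity. Inhibition is then read photometrically and expressed as efficacy against untreated control.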

For another test, the system named is Cercospora beticola. In words: in vitro-Test with fungal microorganisms, Method B (tables C11-C20). The essentials: as §1
Test [1] has as its system Colletotrichum lindemuthianum. Put plainly: in vitro-Test with fungal microorganisms, Method A (tables D1-D8). The settings on record: mixing partner alone. The essentials: (§2)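 Readout: extinction at 620 nm, measured at start and again 3-5 days later, giving efficacy versus untreated control (0% = control growth, 100% = no growth). Compounds were evaporated from methanol/emulsifier before adding potato dextrose medium with fungal spores or mycelium; incubation 20° C, 85% RH.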

The subject of test [2] is Cordana musae. In words: in vitro-Test with fungal microorganisms, Method A (tables E1-E8). To be noted: single substance. A digest of the protocol: as §2
Test [3] relates to Cordana musae. Put plainly: in vitro-Test with fungal microorganisms, Method B (tables E9-E16). To be noted: single active. A digest of the protocol: as §1
Test [4] concerns Diaporthe citri. Put plainly: in vitro-Test with fungal microorganisms, Method A (tables F1-F11). A digest of the protocol: as §2
The subject of test [5] is Diaporthe citri. In words: in vitro-Test with fungal microorganisms, Method B (tables F12-F15). As to the method:
(§3) Example: In Vitro-Test with Fungal Microorganisms
(§4) Wells of 96-well microtiter plates are filled with 30 μl of a preparation of test compound or compound combination in methanol+emulsifier alkylaryl-polyglycol-ether. Thereafter, the solvent is evaporated in a hood. At the next step, 200 μl of liquid growth medium is given, that has been amended with an appropriate concentration of spores or mycelium suspension of the test fungus.
(§5) With the aid of a photometer, the extinction in all wells is measured at the wavelength of 600 nm.
(§6) The microtiter plates are incubated for 3 to 7 days at 20° C. and 85% relative humidity. After the incubation inhibition of growth is determined photometrically. Efficacy is calculated in relation to the untreated control, 0% efficacy means fungal growth as high as in untreated control while 100% efficacy means no fungal growth is measured.
(§7) The data in tables A1 to A12, B1 to B14, C1 to C10, D1 to D8, E1 to E8, F1 to F11, G1 to G4, H1 to H4 and I1 to I5 were collected according to Method A. The data in tables A13 to A22, B15 to B18, C11 to C20, E9 to E16, F12 to F15, G5 to G15, H5 to H8, I6 to I11 and J1 to J11 were collected according to Method B.

The test system of a further test is Fusarium culmorum. In words: in vitro-Test with fungal microorganisms, Method B (tables G5-G15). To be noted: for inhibition of growth at 0.08 ppm / inhibition of growth at 0.4 ppm / inhibition of growth at 2 ppm: Fusarium culmorum, read-out: Efficacy. A digest of the protocol: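 Compound in methanol plus alkylaryl-polyglycol-ether emulsifier dried in wells, then liquid medium containing Fusarium culmorum spores or mycelium added. Incubated 3-7 days at 20° C, 85% relative humidity; growth read at 600 nm. Efficacy relative to untreated control (0% equals control growth, 100% none).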

In another test the test system is Colletotrichum coccodes. Put plainly: in vitro-Test with fungal microorganisms, Method B (tables J1-J11). The settings on record: for inhibition of growth at 0.08 ppm / inhibition of growth at 2 ppm / inhibition of growth at 0.4 ppm: Colletotrichum coccodes, read-out: Efficacy %. The essentials:
as §1

The test system of the next test is Botrytis cinerea. Put plainly: in vitro-Test with fungal microorganisms, Method B (tables B15-B18). The settings on record: Botrytis cinerea, read-out: Efficacy %. A digest of the protocol:
as §1

Test [6] has as its system Ustilago segetum var. avenae. In words: in vitro-Test with fungal microorganisms, Method B (tables I6-I11). The essentials: as §1
Another test deals with Parastagonospora nodorum. In words: in vitro-Test with fungal microorganisms, Method B (tables H5-H8). To be noted: Parastagonospora nodorum, read-out: Efficacy. How it is done:
as §3, §4, §5, §6, §7

Where [7] appears, read: single active compound, 100 ppm.
[8] abbreviates: single active compound at 20 ppm.
[9] abbreviates: single active compound at 100 ppm.
Setting [10] is: Cercospora beticola, single compound, read-out: Efficacy %.
Where [11] appears, read: Neocordana musae, read-out: Efficacy.
[12] abbreviates: single active compound at 0.08 ppm.
The mark [13] stands for this setting: single active compound at 2 ppm.

Where “and” joins values, the source holds several entries; their conditions need not be identical. Equal entries are not always repeated. Where two headings read alike, the source gives them in different places.

Take `N#Cc1ccccc1NC(=O)c1snc(Cl)c1Cl` [(6.002) isotianil, isotianil]: the Efficacy was determined as 0% in the test on Alternaria alternata (4 ppm); 0% in the test on Alternaria alternata (20 ppm); 15% in the test with Alternaria alternata (100 ppm); 0% in the test on Alternaria alternata (single compound, 0.8 ppm); 11% in the test with Alternaria alternata (single compound, 20 ppm); 9% in the test with Cordana musae [3] (0.8 ppm). The Efficacy in the test with Cordana musae [3] (4 ppm) is 15% and 18%; in the test on Cordana musae [3] (20 ppm), 10% and 18%; with Cordana musae [3] (100 ppm) it was 7%; with Diaporthe citri [4] (Table F11, 0.8 ppm alone) it was 0%; with Diaporthe citri [4] (Table F11, 4.0 ppm alone), 22%; in the test on Diaporthe citri [4] (Table F11, 20.0 ppm alone), 37%. For the same compound, the Efficacy in the test with Diaporthe citri [4] (Table F11, 100.0 ppm alone) stood at 0%; in the test with Diaporthe citri [4] (applied alone, 0.8 ppm), 29%; in the test with Diaporthe citri [4] (applied alone, 4.0 ppm), 5%; with Diaporthe citri [4] (applied alone, 20.0 ppm) it was 15%; in the test with Diaporthe citri [4] (applied alone, 100.0 ppm) it was 16%; with Diaporthe citri [4] (single active, 0.8 ppm), 0%. Further, the Efficacy is 12% in the test on Diaporthe citri [4] (single active, 4.0 ppm); 14% in the test on Diaporthe citri [4] (single active, 20.0 ppm); 18% with Diaporthe citri [4] (single active, 100.0 ppm); 10% with Diaporthe citri [5] (Table F14, 0.8 ppm alone); 9% in the test on Diaporthe citri [5] (Table F14, 4 ppm alone); 5% in the test on Diaporthe citri [5] (Table F14, 20 ppm alone). The Efficacy with Diaporthe citri [5] (Table F14, 100 ppm alone) is 19%; in the test with Fusarium culmorum (single active compound, 0.8 ppm), 7%; with Fusarium culmorum (single active compound, 4 ppm), 16%; in the test with Fusarium culmorum (single active compound, 20 ppm), 14%; in the test on Fusarium culmorum (setting [7]), 20%. The Efficacy % was 8% in the test on Cercospora beticola (4 ppm); 3% in the test with Cercospora beticola (20 ppm); 0% with Cercospora beticola (single compound, 100 ppm); 0% in test [1] (0.8 ppm); 9% in test [1] (4.0 ppm); 3% in test [1] (20.0 ppm). Moreover, the Efficacy % is 0% in test [1] (100.0 ppm); 9% with Cordana musae [2] (0.8 ppm); 6% in the test with Cordana musae [2] (4.0 ppm); 0% in the test with Cordana musae [2] (20.0 ppm); 0% in the test with Colletotrichum coccodes (setting [8]); 0% in the test with Colletotrichum coccodes (setting [9]).
In the case of `CO/N=C(/C1=NOCCO1)c1ccccc1Oc1ncnc(Oc2ccccc2Cl)c1F` [(3.012) fluoxastrobin, fluoxastrobin], the inhibition of growth at 4 ppm with Alternaria alternata (Alternaria alternata, 4 ppm, read-out: Efficacy) came out at 68%. Further, the inhibition of growth at 20 ppm with Alternaria alternata (Alternaria alternata, 20 ppm, read-out: Efficacy) came out at 92%. Also, the inhibition of growth at 0.4 ppm was found to be 70% with Alternaria alternata (Alternaria alternata, single compound, 0.4 ppm, read-out: Efficacy); 20% in the test with Botrytis cinerea (0.4 ppm alone); 100% in the test with Cercospora beticola (Cercospora beticola, read-out: Efficacy %); 100% with Cercospora beticola (setting [10]); 47% in the test with Fusarium culmorum (single active compound); 51% in [6] (0.4 ppm, read-out: Efficacy %). Moreover, the inhibition of growth at 2 ppm with Botrytis cinerea (2 ppm alone) is 31%; in the test on Fusarium culmorum (single active compound) it was 37%; in the test on Colletotrichum coccodes (setting [13]), 0%. Further, the inhibition of growth at 0.08 ppm was found to be 96% in the test on Cercospora beticola (setting [10]); 3% in the test with Cordana musae [3] (setting [11]); 19% in the test on Fusarium culmorum (alone); 27% in the test with Fusarium culmorum (single active compound); 18% in test [6] (read-out: Efficacy %); 16% in test [6] (alone, read-out: Efficacy %). The inhibition of growth at 0.08 ppm was found to be 41% in the test on Colletotrichum coccodes (0.08 ppm) and 0% with Colletotrichum coccodes (setting [12]). Moreover, the Efficacy with Diaporthe citri [5] (Table F13, 0.4 ppm alone) amounted to 83%; in the test with Diaporthe citri [5] (Table F13, 2 ppm alone) it was 96%.
With `CCN(C)C=Nc1cc(C)c(Oc2cccc(SC(F)(F)C(F)F)c2)cc1C` [(1.067), N′-(2,5-dimethyl-4-{3-[(1,1,2,2-tetrafluoro-ethyl)sulfanyl]-phenoxy}phenyl)-N-ethyl-N-methyl-imidoformamide], the inhibition of growth at 2 ppm with Alternaria alternata (Alternaria alternata, 2 ppm, read-out: Efficacy) came to 74%; in the test with Cercospora beticola (Cercospora beticola, single compound, 2 ppm, read-out: Efficacy %), 100%; with Cordana musae [3] (Neocordana musae, 2 ppm, read-out: Efficacy), 100%; in the test with Fusarium culmorum (alone), 99%; in the test with Fusarium culmorum (single active compound), 97%; with Colletotrichum coccodes (2 ppm), 99%. Besides, the inhibition of growth at 2 ppm in the test with Colletotrichum coccodes (setting [13]) stood at 97%. Also, the inhibition of growth at 0.08 ppm in the test on Cercospora beticola (setting [10]) amounted to 0%; in the test with Cordana musae [3] (setting [11]), 0%; with Fusarium culmorum (alone), 30%; with Fusarium culmorum (single active compound) it was 22%; with Parastagonospora nodorum (0.08 ppm) it was 94%; in [6] (alone, read-out: Efficacy %), 100%. For the same compound, the inhibition of growth at 0.08 ppm with Colletotrichum coccodes (setting [12]) was 1%. Further, the inhibition of growth at 0.4 ppm amounted to 68% in the test with Cercospora beticola (setting [10]); 14% in the test on Cordana musae [3] (Neocordana musae, 0.4 ppm, read-out: Efficacy); 26% in the test on Fusarium culmorum (alone); 100% in the test with Parastagonospora nodorum (0.4 ppm); 0% in the test on Colletotrichum coccodes (0.4 ppm); 12% in the test on Colletotrichum coccodes (single active compound at 0.4 ppm).
As to `CCO[PH](=O)[O-].CCO[PH](=O)[O-].CCO[PH](=O)[O-].[Al+3]` [(15.012) fosetylal], the Efficacy in the test on Diaporthe citri [5] (Table F12, 0.8 ppm alone) came out at 13%; in the test with Diaporthe citri [5] (Table F12, 4 ppm alone), 7%; in the test on Fusarium culmorum (single active compound, 4 ppm), 5%; in the test on Fusarium culmorum (single active compound, 20 ppm), 11%; with Fusarium culmorum (setting [7]), 30%. Moreover, the Efficacy % came to 2% in test [6] (0.8 ppm); 0% in [6] (20 ppm); 0% with Colletotrichum coccodes (0.8 ppm); 0% in the test on Colletotrichum coccodes (4 ppm); 0% in the test with Colletotrichum coccodes (20 ppm); 27% in the test on Colletotrichum coccodes (single active compound at 0.8 ppm). The Efficacy % in the test with Colletotrichum coccodes (single active compound at 4 ppm) stood at 0%; in the test with Colletotrichum coccodes (setting [8]), 2%; in the test on Colletotrichum coccodes (setting [9]) it was 15%.
